In patent publication US5840918A, “Isoprenyl transferase inhibitors” (Eisai Co., Ltd., priority 1997, dated 1998):

Tests used:
FTase = molecular target: T1, FTase (Bos taurus, UniProt P29702+P49355); assay: Inhibition of FTase-mediated prenylation (in vitro prenylation assay); assay type: biochemical; details: Table 1; partially purified FTase, 3 μM recombinant H-ras, 440 nM [3H]FPP, 15 min 37° C
T1 construct: bovine brain by inference from the cited Moores et al. 1991
Source text: (§1) Nanomolar concentrations of the indicated compounds were sufficient to inhibit farnesylation of ras proteins in vitro. For screening candidate compounds useful for the treatment of ras-associated tumors, the FTase assay is preferred. […] Substitutions which confer GGTase specificity as taught herein also produced potent inhibitors of GGTase.

GGTase = assay: Inhibition of GGTase-mediated prenylation (in vitro prenylation assay); assay type: biochemical; details: Table 1; partially purified GGTase, 5 μM recombinant H-ras (61L, CAIL), 1 μM [3H] geranylgeranyl diphosphate
Source text: as §1

[1] = system: H-ras farnesylation in H-ras (61L) transformed NIH3T3 fibroblasts; assay: Inhibition of H-ras farnesylation in whole cells (Western blot); assay type: cell-based, mouse
Description: The ability of compounds of the invention to inhibit H-ras farnesylation and rap1 geranylgeranylation in whole cells was determined. H-ras (61L) transformed NIH3T3 fibroblasts were generously provided by C. Der, Univ. N. Carolina. These fibroblasts were treated for 24 h with 50 μM lovastatin (control) or the indicated concentrations of inhibitor. The cells were lysed in 1% NP-40, 5 mM Tris-HCl (pH 8.0), 5 mM EDTA, 0.1 mM N-tosyl-L-phenylalanine chloromethyl ketone, 0.1 mM N-tosyl-L-lysine chloromethyl ketone, and 1 mM phenylmethylsulfonyl fluoride. The lysate was centrifuged (15000×g, 5 min.) and the supernatant was used as a cell extract. […] After transfer to IMMOBILON P™ membrane (Millipore), the blots were probed with LA069 mouse monoclonal antibody to H-ras (Quality Biotech), or rabbit polyclonal antibody to rap1/Krev (Santa Cruz Biotechnology). All Western blots were developed using ECL chemiluminescent reagents (Amersham).

[2] = Mus musculus, NIH3T3, 24 h, Table 2

| IC50 (FTase) | IC50 (GGTase) | SMILES | IC50 [1, 2] | IC50 ([1]; Mus musculus, NIH3T3, Table 2, 24 h) | IC50 ([1]; Table 2, 24 h) |
| --- | --- | --- | --- | --- | --- |
| 2810 nM | 8050 nM | CSCC[C@H](NC(=O)C(/C=C/C(/C=C/CCS)C(C)C)Cc1ccccc1)C(=O)O (single isomer, unassigned) [PD052] | – | – | – |
| 2220 nM | 8050 nM | CSCC[C@H](NC(=O)C(/C=C/C(/C=C/CCS)C(C)C)Cc1ccccc1)C(=O)O (single isomer, unassigned) [PD112] | 193000 nM | – | – |
| 23 nM | 44 nM | CSCC[C@H](NC(=O)C(/C=C/[C@@H](/C=C/C(N)CS)C(C)(C)C)C(C)C)C(=O)O (single isomer, unassigned) [PD152] | 320 nM | – | – |
| 140 nM | 11000 nM | COC(=O)[C@H](CCS(C)(=O)=O)NC(=O)C(Cc1cccs1)NC[C@@H](/C=C/C(N)CS)C(C)C (stereo partly shown) [PA011] | 100 nM | – | – |
| 28 nM | 7100 nM | COC(=O)[C@H](CCS(C)(=O)=O)NC(=O)C(Cc1cccs1)N(C)C[C@@H](/C=C/C(N)CS)C(C)C (stereo partly shown) [PA021] | 80 nM | – | – |
| 3.6 nM | 215 nM | CSCC[C@H](NC(=O)C(Cc1cccs1)NC[C@@H](/C=C/C(N)CS)C(C)C)C(=O)O (stereo partly shown) [PA031] | 1000 nM | – | – |
| 2.5 nM | 56 nM | CSCC[C@H](NC(=O)C(Cc1ccccc1)NC[C@@H](/C=C/C(N)CS)C(C)C)C(=O)O (stereo partly shown) [PA041] | 3500 nM | – | – |
| 20 nM | 76 nM | CC[C@H](C)[C@H](NC[C@@H](/C=C/C(N)CS)C(C)C)C(=O)N[C@@H](CCSC)C(=O)O (stereo partly shown) [PA051] | 1900 nM | – | – |
| 2.1 nM | 48 nM | CSCC[C@H](NC(=O)C(NC[C@@H](/C=C/C(N)CS)C(C)C)C(C)C)C(=O)O (stereo partly shown) [PA061] | 580 nM | – | – |
| 22 nM | 500 nM | CSCC[C@H](NC(=O)C(Cc1cccs1)N(C)C[C@@H](/C=C/C(N)CS)C(C)C)C(=O)O (stereo partly shown) [PA071] | 3100 nM | – | – |
| 102 nM | 2660 nM | COC(=O)[C@H](CCSC)NC(=O)C(Cc1cccs1)NC[C@@H](/C=C/C(N)CS)C(C)C (stereo partly shown) [PA081] | 25 nM | – | – |
| 170 nM | 2380 nM | COC(=O)[C@H](CCSC)NC(=O)C(Cc1ccccc1)NC[C@@H](/C=C/C(N)CS)C(C)C (stereo partly shown) [PA091] | 100 nM | – | – |
| 170 nM | 1300 nM | COC(=O)[C@H](CCSC)NC(=O)C(NC[C@@H](/C=C/C(N)CS)C(C)C)C(C)C (stereo partly shown) [PA101] | 240 nM | – | – |
| 15 nM | 380 nM | CC(C)[C@H](/C=C/C(N)CS)CN(C)C(Cc1cccs1)C(=O)N[C@@H](CCS(C)(=O)=O)C(=O)O (stereo partly shown) [PA121] | 580 nM | – | – |
| 28 nM | 1800 nM | COC(=O)[C@H](CCSC)NC(=O)C(Cc1cccs1)N(C)C[C@@H](/C=C/C(N)CS)C(C)C (stereo partly shown) [PA131] | 39 nM | – | – |
| 95 nM | 880 nM | CC[C@H](C)[C@H](NC[C@@H](/C=C/C(N)CS)C(C)C)C(=O)N[C@@H](CCSC)C(=O)OC (stereo partly shown) [PA141] | 17 nM | – | – |
| 38 nM | 620 nM | CSCC[C@H](NC(=O)C(/C=C/[C@@H](/C=C/C(N)CS)C(C)(C)C)Cc1ccccc1)C(=O)O (stereo partly shown) [PD012] | – | – | 72000 nM |
| 5.2 nM | 3060 nM | CC(C)C(/C=C/[C@@H](/C=C/C(N)CS)C(C)C)C(=O)N[C@@H](CCC(N)=O)C(=O)O (stereo partly shown) [PD022] | 400 nM | – | – |
| 450 nM | 2860 nM | CSCC[C@H](NC(=O)C(/C=C/[C@@H](/C=C/C(N)CS)C(C)C)C(C)C)C(=O)N1CCOCC1 (stereo partly shown) [PD032] | 1950 nM | – | – |
| 5 nM | 1620 nM | CSCC[C@H](NC(=O)C(/C=C/[C@@H](/C=C/C(N)CS)C(C)C)C(C)C)C(N)=O (stereo partly shown) [PD042] | 1950 nM | – | – |
| 200 nM | 1760 nM | C[C@H](/C=C/C(N)CS)/C=C/C(Cc1ccccc1)C(=O)N[C@@H](CCC(N)=O)C(=O)O (stereo partly shown) [PD062] | – | – | 21000 nM |
| 42 nM | 680 nM | CSCC[C@H](NC(=O)C(/C=C/[C@@H](/C=C/C(N)CS)C(C)C)C(C)C)C(=O)N(C)Cc1ccccn1 (stereo partly shown) [PD072] | 7400 nM | – | – |
| 1570 nM | – | CSCCC(=O)NCC(/C=C/[C@@H](/C=C/[C@@H](N)CS)C(C)C)C(C)C (stereo partly shown) [PD082] | – | – | – |
| 52 nM | 3200 nM | CC(C)C(/C=C/[C@@H](/C=C/C(N)CS)C(C)C)C(=O)N[C@H]1CCOC1=O (stereo partly shown) [PD092] | 780 nM | – | – |
| 394 nM | – | C[C@H](/C=C/C(N)CS)/C=C/C(Cc1ccccc1)C(=O)N[C@@H](CCC(N)=O)C(=O)O (stereo partly shown) [PD102] | – | – | 75000 nM |

| IC50 (FTase) | IC50 (GGTase) | SMILES | IC50 [1, 2] | IC50 ([1]; Mus musculus, NIH3T3, Table 2, 24 h) | IC50 ([1]; Table 2, 24 h) |
| --- | --- | --- | --- | --- | --- |
| 3 nM | 10 nM | CSCCC(NC(=O)C(/C=C\[C@@H](/C=C/C(N)CS)C(C)C)C(C)C)C(=O)O (stereo partly shown) [PD122] | 400 nM | – | – |
| 245 nM | 4770 nM | COC(=O)[C@H](CCS(C)(=O)=O)NC(=O)C(/C=C/[C@@H](/C=C/C(N)CS)C(C)C)C(C)C (stereo partly shown) [PD132] | 2600 nM | – | – |
| 42 nM | 2120 nM | CSCC[C@H](NC(=O)C(/C=C/[C@@H](/C=C/C(N)CS)C(C)(C)C)C(C)C)C(=O)O (stereo partly shown) [PD142] | 7300 nM | – | – |
| 260 nM | 4570 nM | CSCC[C@H](NC(=O)C(/C=C/C(/C=C/CCS)C(C)C)Cc1ccccc1)C(=O)O (stereo partly shown) [PD162] | 326000 nM | – | – |
| 7 nM | 750 nM | CC(C)C(/C=C/[C@@H](/C=C/C(N)CS)C(C)C)C(=O)N[C@@H](CCS(C)(=O)=O)C(=O)O (stereo partly shown) [PD172] | 13100 nM | – | – |
| < 1 nM | 63.3 nM | CSCC[C@H](NC(=O)C(/C=C/[C@@H](/C=C/C(N)CS)C(C)(C)C)Cc1ccccc1)C(=O)O (stereo partly shown) [PD182] | – | – | 2800 nM |
| 296 nM | 2990 nM | CSCC[C@H](NC(=O)C(/C=C/[C@@H](/C=C/C(N)CS)C(C)C)C(C)C)C(=O)NCc1ccccn1 (stereo partly shown) [PD192] | 180 nM | – | – |
| 17 nM | 1120 nM | CC(C)C(/C=C/[C@@H](/C=C/C(N)CS)C(C)C)C(=O)N[C@@H](CO)C(=O)O (stereo partly shown) [PD202] | 1950 nM | – | – |
| 3 nM | 4.5 nM | CSCCC(NC(=O)C(C=CC(C=CC(N)CSSCC(N)C=CC(C=CC(Cc1ccccc1)C(=O)NC(CCSC)C(=O)O)C(C)C)C(C)C)Cc1ccccc1)C(=O)O (stereo not shown) [PD212] | 110 nM | – | – |
| 710 nM | 3040 nM | CSCC[C@H](NC(=O)C(/C=C/[C@@H](/C=C/[C@@H](N)CS)C(C)C)C(C)C)C(=O)NC(C)(C)C (stereo partly shown) [PD222] | > 50000 nM | – | – |
| 2 nM | 3.7 nM | CC(C)[C@@H](/C=C\C(Cc1ccccc1)C(=O)NC(CCC(N)=O)C(=O)O)/C=C/C(N)CS (stereo partly shown) [PD301] | 4500 nM | – | – |
| 69 nM | 570 nM | CSCCC(NC(=O)C(/C=C\C(/C=C/C(N)CS)C(C)C)Cc1ccccc1)C(=O)O (stereo not shown) [PD311] | 100 to 1000 nM | – | – |
| 25 nM | 14 nM | CSCCC(NC(=O)C(/C=C\[C@@H](/C=C/C1CSC(C)(C)N1)C(C)C)Cc1ccccc1)C(=O)O (stereo partly shown) [PD321] | 100 to 1000 nM | – | – |
| 0.2 nM | – | CSCC[C@H](NC(=O)C(/C=C/[C@@H](/C=C/C(N)CS)C(C)C)C(C)C)C(=O)O (stereo partly shown) [PD341] | 290 nM | – | – |
| 320 nM | 2490 nM | CCOC(=O)[C@H](CCSC)NC(=O)C(/C=C/[C@@H](/C=C/C(N)CS)Cc1ccccc1)C(C)C (stereo partly shown) [PD351] | 3300 nM | – | – |
| 0.1 nM | – | CC(C)[C@@H](/C=C\C(Cc1ccccc1)C(=O)NC(CO)C(=O)O)/C=C/C(N)CS (stereo partly shown) [PD361] | 3500 nM | – | – |
| 38 nM | – | COC(=O)C(CCSC)NC(=O)C(/C=C\[C@@H](/C=C/C(N)CS)C(C)C)Cc1ccccc1 (stereo partly shown) [PD371] | 90 nM | – | – |
| 80 nM | – | CC(C)CC(NC(=O)C(/C=C\[C@@H](/C=C/C(N)CS)C(C)C)Cc1ccccc1)C(=O)O (stereo partly shown) [PD381] | – | – | – |
| 29 nM | – | CSCC[C@H](NC(=O)C(/C=C/[C@@H](/C=C/C(N)CS)Cc1ccccc1)C(C)C)C(=O)O (stereo partly shown) [PD391] | 16400 nM | – | – |
| 28 nM | 1400 nM | CSCC[C@H](NC(=O)C(/C=C\[C@@H](/C=C/C(N)CS)C(C)C)Cc1ccccc1)C(=O)O (stereo partly shown) [PD401] | 100 to 1000 nM | – | – |
| 560 nM | 8400 nM | COC(=O)[C@H](CCSC)NC(=O)C(/C=C/[C@@H](/C=C/C(N)CS)C(C)C)C(C)C (stereo partly shown) [PD411] | 220 nM | – | – |
| 570 nM | 3400 nM | CCOC(=O)C(CCSC)NC(=O)C(C=CC(C=CC(N)CS)Cc1ccccc1)C(C)C (stereo not shown) [PD421] | 1900 nM | – | – |
| 6 nM | 1080 nM | CSCC[C@H](NCC(/C=C\[C@@H](/C=C/C(N)CS)C(C)C)Cc1ccccc1)C(=O)O (stereo partly shown) [PD431] | – | – | – |
| 26 nM | 170 nM | CSCC[C@H](NC(=O)C(/C=C/[C@H](C)/C=C/C(N)CS)Cc1ccccc1)C(=O)O (stereo partly shown) [PD441] | 4200 nM | – | – |

| SMILES | IC50 (FTase) | IC50 (GGTase) | IC50 [1, 2] | IC50 ([1]; Mus musculus, NIH3T3, Table 2, 24 h) | IC50 ([1]; Table 2, 24 h) |
| --- | --- | --- | --- | --- | --- |
| CC(C)[C@H](/C=C/C(N)CS)CNC(Cc1cccs1)C(=O)N[C@@H](CCS(C)(=O)=O)C(=O)O (stereo partly shown) [PA111] | 13 nM | 270 nM | – | 130 nM | – |
